This is an account of results in publication PMC5859971 (Genes & Development, 2018).

The subject of one assay is HCT116-PHF5A^WT. The assay can be described thus: CellTiter-Glo viability assay, HCT116-PHF5A^WT. It counts as cell-based, human. As to conditions: Homo sapiens; 72 h, CellTiter-Glo; read-out: HCT116-PHF5A^WT GI50. The protocol:
(§1) To further validate the pose of the compound, we analyzed the activity of several related chemical probes using the SPA with the purified protein complex ([Teng et al. 2017]). The SPA is formatted as a competition assay in which the purified protein complex is captured on a bead containing scintillant, incubated with test compounds over a dose response, and then competed off with a fixed concentration of ^3H-Plad compound. IC50 curves are then measured from the resulting light emitted from the bead (Table 1; Supplemental Fig. S4). In addition, we tested the probes in viability assays in two engineered cell lines: HCT116-PHF5A^WT and the sensitization line HCT116-PHF5A^R38C (Table 1; Supplemental Fig. S5). This facilitates profiling of chemical probe activity in the PHF5A background (wild type and mutant). The relative expression levels were further confirmed by Western blot analysis (Supplemental Fig. S5).
(§2) Parental HCT116 cells were obtained from American Type Culture Collection and cultured in RPMI 1640 medium supplemented with 10% fetal bovine serum. PHF5A R38C was generated using the Agilent QuikChange II kit and was cloned into pLenti6.3/V5 as described ([Teng et al. 2017]). The verified clone was used for lentivirus production using X293T cells. Parental HCT116 cells were infected with virus and selected with blasticidin S at 10 µg mL^−1 for 1 wk. Engineered cell lines were subsequently maintained in the absence of antibiotic. Transgene expression was confirmed by Western blot analysis (Supplemental Fig. S4). For Western blot analysis, α-PHF5A rabbit polyclonal antibody (Protein Tech, 15554-1-AP) was used at 1:1000 dilution in LI-COR buffer, and anti-rabbit secondary antibody (LI-COR) was used at 1:5000 dilution. The Western blot was imaged using an Odyssey V3.0 imager (LI-COR). For CellTiter-Glo analysis of the wild-type and PHF5A^R38C cell lines, 500 cells were seeded in each well of a 384-well plate 1 d before compound addition. Dose response was measured in 11-point serial dilutions with a top dose of 10 µM. The percentage of DMSO was controlled throughout, and a DMSO-only control was included. Seventy-two hours after dosing, CellTiter-Glo reagent was added, incubated, and assayed on an EnVision multilabel reader (PerkinElmer). Luminescence values from each treatment were normalized to the average value of the respective DMSO control. The dose response curve plots were generated in GraphPad Prism, and GI50 values were calculated from nonlinear regression analysis. GI50 values for the wild-type and R38C mutant cell lines were plotted in Spotfire.

Assay [1] deals with splicing of Ad2.1 pre-mRNA substrate. As to the kind of experiment: In vitro splicing (IVS) assay, Ad2.1 substrate, HeLa S3 nuclear extracts, RT-qPCR. It counts as biochemical, human. The following applies: Ad2.1 (strong) substrate. An excerpt: (§3) A substrate competitive mechanism of action (MOA) would predict that weaker pre-mRNA substrates would be easier to inhibit than stronger substrates. To date, it has not been possible to evaluate substrate competition using traditional steady-state conditions because splicing reactions are thought to be single-turnover events in vitro, and therefore it is not possible to measure a KM for the pre-mRNA. […] Specifically, we engineered the strong in vitro splicing substrate Ad2.1 by enhancing the U2 snRNP base-pairing around the BPA found in the Ad2 substrate. We then engineered a weaker substrate, Ad2.2, by adding a decoy BPS lacking an extrahelical adenosine (Ad2.2) (Fig. 5A; Supplemental Vector NTI files; [Corrionero et al. 2011]). […] We then evaluated E7107 and several chemical probes to better understand their mechanism.
(§4) Figure 5. […] (A) Base-pairing logic for IVS substrates. (BPRS) Branch point recognition sequence in U2 snRNA; (BPS) the BPS in the pre-mRNA. The Ad2 gene BPS sequence (UACUUAU) was modified (UACUAAU) to strengthen the U2 base-pairing interactions flanking the BPA, leading to the Ad2.1 substrate (BPA in red). The Ad2.2 sequence has the same BPS as Ad2 but also contains a 5′ decoy BPS sequence (lacking an extrahelical adenine) that can base-pair with the BPRS. The decoy BPS and suboptimal BPS overlap, which gives U2 at least two possibilities for possible base pairing, as indicated. […] (B) RT-qPCR time-course data showing product formation over time. […] (C) Representative IC50 curves for compound 6 using the two different substrates (Ad2.1 and Ad2.2).
(§5) The Ad2-derived ([Pellizzoni et al. 1998]) sequence was cloned into the pGEM-3Z vector (Promega) using 5′ EcoRI and 3′ XbaI restriction sites. The Ad2 variant (Ad2.2) ([Seiler et al. 2018]) was cloned into pcDNA3.1(+) vector (Promega) using the same restriction sites. The plasmids were linearized using XbaI and used as DNA templates in the in vitro transcription reactions. The FtzΔi intron-less plasmid ([Luo and Reed 1999]) was linearized using EcoRI. All RNAs were in vitro transcribed and then purified using MegaScript T7 and MegaClear kits, respectively (Invitrogen). For splicing reactions used with the Ad2.2 substrate, […] reactions were prepared using 8 µg of nuclear extracts prepared from HeLa S3, a saturating excess of 2 ng of pre-mRNA substrate, 0.2 ng of FTZΔi, and varying concentrations of compounds or DMSO.
For orientation: Real-time PCR tracks product formation cycle by cycle.

In the next assay the test system is HCT116-PHF5A^R38C. As to the kind of experiment: CellTiter-Glo viability assay, HCT116-PHF5A^R38C. It counts as cell-based, human. The protocol:
as §1, §2
Background: Cellular ATP, detected with luciferase, serves as a proxy for viable cell number.

For assay [2], the system named is SF3B1^R1074H and PHF5A^Y36 mutations. As to conditions: strongest levels of resistance; ref Yokoi et al. 2011; Teng et al. 2017; cited from earlier work.
The test system of assay [3] is splicing of Ad2.2 pre-mRNA substrate. The assay can be described thus: In vitro splicing (IVS) assay, Ad2.2 substrate, HeLa S3 nuclear extracts, RT-qPCR. It counts as biochemical, human.
Source text: as §3, §4, §5

Some results are limits rather than exact numbers.

As for `CCC(O)C(C)C1OC1CC(C)(O)C=CC=C(C)C1OC(=O)CC(O)CCC(C)(O)C(OC(=O)N2CCN(C3CCCCCC3)CC2)C=CC1C` (centres unmarked) [Compound E7107], the GI50 with HCT116-PHF5A^WT amounted to 2.3 nM; with HCT116-PHF5A^R38C (Homo sapiens, 72 h, CellTiter-Glo, read-out: HCT116-PHF5A^R38C GI50) it was 1.2 nM. Further, the IC50 in assay [1] came to 9.1 nM; in assay [3] (Ad2.2 (weak) substrate) it was 9.9 nM. The “sensitization (enhanced potency in PHF5A^R38C vs wild type)” value in the assay on HCT116-PHF5A^R38C (GI50 R38C vs wild type, n = 2) is “twofold”. In the assay with HCT116-PHF5A^R38C (R38C vs wild type), the “PHF5A^R38C sensitization phenotype (words)” value was “sensitization”. The “resistance conferred by SF3B1^R1074H and PHF5A^Y36C” value in assay [2] was greater than 500 fold. Moreover, the “inhibition of strong and weak IVS substrates” value in assay [3] (Ad2.1 and Ad2.2 substrates compared) is “inhibit both the strong and weak substrates equally well”.

One may read the GI50 as the concentration that inhibits growth by half. The term IC50 denotes the concentration that inhibits the measured activity by half. A low value points to higher potency.
